From US10696687B2, “Pyrazolo fused heterocyclic compounds as ERK inhibitors” (CHANGZHOU JIEKAI PHARMATECH CO., LTD., priority 2015, dated 2020)

system: Colon cancer cells (Colo205 cell line); assay: Colo205 cell proliferation assay (MTT assay, WST-8 readout); assay type: cell-based; settings: Homo sapiens, COLO 205, 72 hours incubation, absorbance at 450 nm, read-out: Colo 205 cell growth inhibition IC50
Description: Compounds disclosed herein were tested for the inhibition of ERK2 by a Colo205 cell proliferation assay commonly known as MTT assay. In this assay, a complete media was prepared by adding 10% fetal bovine serum to RPMI-1640 medium (Life technology). Colon cancer cells (Colo205 cell line) were added to each of 88 wells of a 96 well plate at a seeding density of 5,000 cells/well/90 μL. The cells were allowed to attach to the plate by incubating at 37° C. for 24 hours. The compound was dissolved in DMSO (SIGMA). A solution of test compound was prepared in complete media by serial dilution to obtain the following concentrations: 500 μM, 150 μM, 50 μM, 15 μM, 5 μM, 1.5 μM, 0.5 μM, 0.15 μM and 0.05 μM. The test compound solution (10 μL) was added to each of 80 cell-containing wells. The final concentrations of the compound were following: 50 μM, 15 μM, 5 μM, 1.5 μM, 0.5 μM, 0.15 μM, 0.05 μM, 0.015 μM and 0.005 μM. The final concentration of DMSO is 0.5%. To the 8 remaining cell-containing wells, only complete media (containing 0.5% DMSO) was added to form a control group in order to measure maximal proliferation. To the remaining 8 empty wells, complete media was added to for a vehicle control group in order to measure background. The plates were incubated at 37° C. for 72 hours. 10 μL WST-8 solution (DOJINDO, Cell Counting KIT-8) was added to each well. The plates were further incubated at 37° C. for 2 hours, and then read for the absorbance using a microplate reader at 450 nm.

IC50, 0.052 to 10 µM:
Cc1cc(-c2n[nH]c3ncc(C(=O)N[C@@H]4CN(C)C[C@H]4c4ccccc4C(F)(F)F)cc23)ccn1 (racemic) [Compound 3, trans-N-(1-methyl-4-(2-(trifluoromethyl)phenyl)pyrrolidin-3-yl)-3-(2-methylpyridin-4-yl)-1H-pyrazolo[3,4-b]pyridine-5-carboxamide]
CN1C[C@H](NC(=O)c2cnc3[nH]nc(N4CCOCC4)c3c2)[C@@H](c2ccccc2C(F)(F)F)C1 (relative stereo) [Compound 9, trans-N-(1-methyl-4-(2-(trifluoromethyl)phenyl)pyrrolidin-3-yl)-3-morpholino-1H-pyrazolo[3,4-b]pyridine-5-carboxamide]
Cc1cc(-c2n[nH]c3ncc(C(=O)N[C@H]4CN(C)C[C@@H]4c4cccc(Cl)c4)cc23)ccn1 (relative stereo) [Compound 10, trans-N-(4-(3-chlorophenyl)-1-methylpyrrolidin-3-yl)-3-(2-methylpyridin-4-yl)-1H-pyrazolo[3,4-b]pyridine-5-carboxamide]
COc1cc(-c2n[nH]c3ncc(C(=O)N[C@H]4CN(C)C[C@@H]4c4ccccc4C(F)(F)F)cc23)ccn1 (relative stereo) [Compound 13, trans-3-(2-methoxypyridin-4-yl)-N-(1-methyl-4-(2-(trifluoromethyl)phenyl)pyrrolidin-3-yl)-1H-pyrazolo[3,4-b]pyridine-5-carboxamide]
Cc1cc(-c2n[nH]c3ncc(C(=O)N[C@H]4CN(C)C[C@@H]4c4ccccc4F)cc23)ccn1 (relative stereo) [Compound 16, trans-N-(-4-(2-fluorophenyl)-1-methylpyrrolidin-3-yl)-3-(2-methylpyridin-4-yl)-1H-pyrazolo[3,4-b]pyridine-5-carboxamide]
COc1ncc(-c2n[nH]c3ncc(C(=O)N[C@H]4CN(C)C[C@@H]4c4ccccc4C(F)(F)F)cc23)cn1 (relative stereo) [Compound 17, trans-3-(2-methoxypyrimidin-5-yl)-N-(-1-methyl-4-(2-(trifluoromethyl)phenyl)pyrrolidin-3-yl)-1H-pyrazolo[3,4-b]pyridine-5-carboxamide]
Cc1cc(-c2n[nH]c3ccc(C(=O)N[C@H]4CN(C)C[C@@H]4c4ccccc4F)cc23)ccn1 (relative stereo) [Compound 23, trans-N-(-4-(2-fluorophenyl)-1-methylpyrrolidin-3-yl)-3-(2-methylpyridin-4-yl)-1H-indazole-5-carboxamide]
Cc1cc(-c2n[nH]c3ncc(C(=O)N[C@H]4CN(C)C[C@@H]4c4ccc(F)cc4)cc23)ccn1 (relative stereo) [Compound 24, trans-N-(-4-(4-fluorophenyl)-1-methylpyrrolidin-3-yl)-3-(2-methylpyridin-4-yl)-1H-pyrazolo[3,4-b]pyridine-5-carboxamide]
Cc1cc(-c2n[nH]c3ncc(C(=O)N[C@H]4CN(C)C[C@@H]4c4ccc(F)cc4F)cc23)ccn1 (relative stereo) [Compound 25, trans-N-(-4-(2,4-difluorophenyl)-1-methylpyrrolidin-3-yl)-3-(2-methylpyridin-4-yl)-1H-pyrazolo[3,4-b]pyridine-5-carboxamide]
CCN1C[C@H](NC(=O)c2cnc3[nH]nc(-c4ccnc(C)c4)c3c2)[C@@H](c2ccccc2C(F)(F)F)C1 (relative stereo) [Compound 26, trans-N-(-1-ethyl-4-(2-(trifluoromethyl)phenyl)pyrrolidin-3-yl)-3-(2-methylpyridin-4-yl)-1H-pyrazolo[3,4-b]pyridine-5-carboxamide]
Cc1cc(-c2n[nH]c3ncc(C(=O)N[C@H]4CN(C)C[C@@H]4c4ccc(F)cc4Cl)cc23)ccn1 (relative stereo) [Compound 28, trans-N-(-4-(2-chloro-4-fluorophenyl)-1-methylpyrrolidin-3-yl)-3-(2-methylpyridin-4-yl)-1H-pyrazolo[3,4-b]pyridine-5-carboxamide]
CCCN1C[C@H](NC(=O)c2cnc3[nH]nc(-c4ccnc(C)c4)c3c2)[C@@H](c2ccccc2C(F)(F)F)C1 (relative stereo) [Compound 29, trans-3-(2-methylpyridin-4-yl)-N-(-1-propyl-4-(2-(trifluoromethyl)phenyl)pyrrolidin-3-yl)-1H-pyrazolo[3,4-b]pyridine-5-carboxamide]
Cc1cc(-c2n[nH]c3ccc(C(=O)N[C@@H]4CN(C)C[C@H]4c4ccccc4Cl)cc23)ccn1 (relative stereo) [Compound 31, trans-N-(-4-(2-chlorophenyl)-1-methylpyrrolidin-3-yl)-3-(2-methylpyridin-4-yl)-1H-indazole-5-carboxamide]
Cc1cc(-c2n[nH]c3ncc(C(=O)N[C@@H]4C[C@H]4c4ccccc4)cc23)ccn1 (relative stereo) [Compound 36, trans-3-(2-methylpyridin-4-yl)-N-(2-phenylcyclopropyl)-1H-pyrazolo[3,4-b]pyridine-5-carboxamide]
Cc1cc(-c2n[nH]c3ncc(C(=O)N[C@@H]4CN(C)C[C@H]4c4ccccc4)cc23)ccn1 (relative stereo) [Compound 38, Trans-N-(1-methyl-4-phenylpyrrolidin-3-yl)-3-(2-methylpyridin-4-yl)-1H-pyrazolo[3,4-b]pyridine-5-carboxamide]
Cc1cc(-c2n[nH]c3ncc(C(=O)N[C@@H]4C[C@H]4c4ccccc4Cl)cc23)ccn1 (relative stereo) [Compound 40, trans-N-(2-(2-chlorophenyl)cyclo-propyl)-3-(2-methylpyridin-4-yl)-1H-pyrazolo[3,4-b]pyridine-5-carboxamide]
Cc1cc(-c2n[nH]c3ncc(C(=O)N[C@@H]4CN(C)C[C@H]4c4ccccc4C(F)(F)F)cc23)ccn1 (single isomer, unassigned) [Compound 14]
Cc1cc(-c2n[nH]c3ncc(C(=O)N[C@H]4CN(C)C[C@@H]4c4ccccc4C(F)(F)F)cc23)ccn1 (single isomer, unassigned) [Compound 15]
CN1C[C@H](NC(=O)c2cnc3[nH]nc(-c4ccnc(C(F)(F)F)c4)c3c2)[C@@H](c2ccccc2C(F)(F)F)C1 (stereo in doubt) [Compound 18, N-(-1-methyl-4-(2-(trifluoromethyl)phenyl)pyrrolidin-3-yl)-3-(2-(trifluoromethyl)pyridin-4-yl)-1H-pyrazolo[3,4-b]pyridine-5-carboxamide]
Cc1cc(-c2n[nH]c3ncc(C(=O)N[C@H]4CNC[C@@H]4c4ccccc4C(F)(F)F)cc23)ccn1 (stereo in doubt) [Compound 19, 3-(2-methylpyridin-4-yl)-N-(-4-(2-(trifluoromethyl)phenyl)pyrrolidin-3-yl)-1H-pyrazolo[3,4-b]pyridine-5-carboxamide]
Cc1cc(-c2n[nH]c3ncc(C(=O)N[C@H]4CN(S(C)(=O)=O)C[C@@H]4c4ccccc4C(F)(F)F)cc23)ccn1 (stereo in doubt) [Compound 20, 3-(2-methylpyridin-4-yl)-N-(-1-(methylsulfonyl)-4-(2-(trifluoromethyl)phenyl)pyrrolidin-3-yl)-1H-pyrazolo[3,4-b]pyridine-5-carboxamide]
